# Entries after “also recorded” stand apart in the source; their conditions may differ. Like-named read-outs stand apart in the source and are kept apart here.
# Experiments:
# [1] = test system: CFSE-labeled CD4 T-cells; format: cell-based, human; conditions: for indirect killing (loss) of resting CFSE-labeled CD4 T-cells: NL4-3-infected effector cells
# [2] = test system: CFSE-labeled spleen CD4 T-cells; assay: Indirect killing assay with CFSE-labeled human spleen cells; format: cell-based; conditions: for loss of CFSE-labeled spleen CD4 T-cells: HIV-infected spleen HLAC effectors; for loss of resting CFSE-labeled spleen CD4 T-cells: HIV-infected tonsil effector cells
# Method: (B and C) Fresh human spleen from a single donor were processed into HLAC and assessed in indirect cell killing assay as described in FIG. 2A. Effector spleen HLAC were stimulated with PHA and IL-2 48 hours before mixing, but not during co-culturing with CFSE-labeled cells. Non-activated resting CFSE-labeled spleen cells were co-cultured with NL4-3-infected or uninfected effector cells in the presence or absence of the following drugs, AZT (5 μM), AMD3100 (250 nM), Efavirenz (100 nM), or Raltegravir (30 μM), as indicated. […] Percentages were normalized to the number of viable CFSE-positive spleen CD4 T-cells co-cultured with uninfected effectors in the presence of AZT, as depicted by (*). Error bars represent standard error of the mean for three experiments performed with three different spleen and tonsil donors.
# Human tonsil or splenic tissues from routine tonsillectomies were obtained from the National Disease Research Interchange and the Cooperative Human Tissue Network and processed as previously described (Jekle et al., 2003, J Virol 77:5846-5854). In brief, tonsils or spleen were minced, passed through a 40-μm cell strainer, and cultured in 96-well U-bottomed polystyrene plates (2×10^6 cells/well) in medium (200 μl/well) consisting of RPMI 1640 supplemented with 15% heat-inactivated fetal bovine serum, 100 μg/ml gentamicin, 200 μg/ml ampicillin, 1 mM sodium pyruvate, 1% nonessential amino acids (Mediatech), 2 mM L-glutamine, and 1% fungizone (Invitrogen). All HIV-1 infections were carried out with 20-50 ng of HIV-1 p24^gag. Cells were incubated with the virus for 12-16 h, washed extensively, and supplemented with fresh medium. After day 5, infections were monitored by measuring p24gag levels in the culture medium using a FLAQ assay (Hayden et al., 2003, AIDS 17:629-631). Infected and uninfected cultures were manipulated as described for individual experiments. In “indirect killing” assays, unless otherwise stated, drugs were used at the following concentrations: 5 μM AZT; 250 nM AMD3100; 10 μg/ml T20; 100 nM Efavirenz; 1 μM Nevirapine; 30 μM Raltegravir; 60 μM 118-D-24; 5 μM Amprenavir; 5 μM Saquinavir; 5 μM Indinavir. CFSE-labeled cells were activated with PHA (5 μg/ml) and IL-2 (20 ng/ml) 2 days before mixing with effector cells.
# Uninfected cells (5×10^6/ml) were labeled with 1 μM CFSE (Molecular Probes C1157), treated with 5 μM AZT for 24 h, and co-cultured with effector cells. CFSE readily diffuses into cells, where intracellular esterases cleave the acetate groups, converting it to a fluorescent, membrane-impermeable dye. […] To quantify indirect killing, mixed (CFSE-labeled+effector) cultures were washed in FACS buffer (PBS supplemented with 2 mM EDTA and 2% fetal bovine serum), stained with PE-conjugated anti-CD4, PerCP-conjugated anti-CD19, and APC-conjugated anti-CD8 (all from BD Pharmingen) and fixed in 1% paraformaldehyde. To determine the absolute numbers of the viable CFSE-labeled cells, a standard number of fluorescent beads (Flow-Count Fluorospheres, Beckman Coulter) was added to each cell-suspension sample before data acquisition. Data were collected on a FACS Calibur (BD Biosciences) and analyzed with Flowjo software (Treestar). The level of indirect killing was defined by sequential gating beginning with forward scatter versus side scatter to select live lymphocytes, subgating on the CFSE-positive population, and calculating the numbers of CD4 or CD8 T or B cells, divided by the number of fluorescent beads acquired.
# [3] = test system: IL-1β; assay: Maturation and secretion of IL-1β in abortively infected tonsillar CD4 T-cells (Western blot); format: cell-based, human; conditions: AZT 5 μM, AMD3100 250 nM, efavirenz 100 nM
# Method: For assessing the processing and secretion of IL-1β in abortively infected CD4 T-cells, CD4 T-cells were isolated from HLACs as described above, and were spinoculated with or without NL4-3 with the indicated drugs as describes above in vi (Spinoculation) and in FIG. 7B. For intracellular protein analysis, cells were lysed 72 hours after spinoculation in RIPA buffer (150 mM NaCl, 1% Nonidet P-40 (vol/vol), 0.5% […] (vol/vol), 0.1% SDS (vol/vol), 50 mM Tris-HCl (pH 8), 1 mM DTT), and EDTA-free Protease Inhibitor (Roche Applied Science, Cat. #04 693 132 001). For analysis of secreted IL-1β, supernatants (200 μl/1 million cells) from the rest of the CD4 T-cells were collected five days after spinoculation and analyzed using Western blot. For Western blots we used the Bio-Rad Criterion 15% pre-cast Tris-HCl gels. Primary antibodies used were 1/1000 of the mouse monoclonal anti-human IL-1β (R&D Systems, Cat. # MAB201) and 1/10000 of the mouse monoclonal anti-β-Actin (Sigma, Cat. # A5316).
Compound,"depletion of activated CFSE-labeled CD4 T-cells ([1]; AZT-resistant HIV-1 clones, AZT 0.5 μM)",indirect killing (loss) of resting CFSE-labeled CD4 T-cells [1],"depletion of activated CFSE-labeled CD4 T-cells ([1]; PHA and IL-2 activated target cells, NL4-3 effectors)",loss of CFSE-labeled spleen CD4 T-cells [2],loss of resting CFSE-labeled spleen CD4 T-cells [2],maturation and release of bioactive 17 kDa IL-1β after NL4-3 infection [3],"indirect killing of CFSE-labeled CD4 T-cells ([1]; GIA-SKY (T20-dependent)-infected effector cells, 1 μg/ml T20)",indirect killing of CFSE-labeled CD4 T-cells ([1]; SIM (T20-resistant)-infected effector cells),indirect killing of CFSE-labeled CD4 T-cells ([1]; WEAU 16-8 (R5/X4)-infected effector cells),AZT-induced killing of activated CFSE-labeled cells ([1]; activated target cells in the presence of AZT)
Cc1cn([C@H]2C[C@H](N=[N+]=[N-])[C@@H](CO)O2)c(=O)[nH]c1=O [AZT],did not deplete,robust,extensively depleted in cultures containing AZT,robust in the absence of drugs or in the presence of AZT,massively depleted,similarly resulted in maturation and release of the bioactive 17 kDa IL-1β; also recorded: also resulted in release of bioactive 17-kDa IL-1β,,,,
O=C1Nc2ccc(Cl)cc2[C@@](C#CC2CC2)(C(F)(F)F)O1 [efavirenz],,blocked indirect killing of resting CD4 T-cells as efficiently as AMD3100,,prevented the loss of CD4 T-cells as efficiently as AMD3100,prevented this loss of CD4 T-cells,completely prevented; also recorded: blocked,,,,
enfuvirtide,,greatly inhibited indirect killing,,,,,Indirect killing was observed,did not inhibit indirect killing,,
c1cc(CN2CCCNCCNCCCNCC2)ccc1CN1CCCNCCNCCCNCC1 [AMD3100],,,,prevented the loss of CD4 T-cells as efficiently as AMD3100,,completely prevented; also recorded: blocked,,,prevented indirect killing,prevented the AZT-induced killing
